pIC50: −log10 of the molar value. “And” between values parts separate entries of the source, which are not always exact repeats. Identical values can stand only once. Counter-ions that a name gives are not always drawn. Like-named read-outs stand apart in the source and are kept apart here.

The test system of data set [1] is SUDHL5. Nature of the data set: Induction of caspase-3/7 activity in SUDHL5 cells (Assay 4). The format is cell-based. The conditions noted are these: SUDHL5, 3 hours treatment, Caspase-Glo 3/7, median, read-out: Caspase SUDHL5 [M] (median). The gist of the method:
(§1)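 Luminescent Caspase-Glo 3/7 read-out in SUDHL5 and SUDHL10 cells after 3 h compound exposure at 37 °C, followed by 1 h reagent incubation.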

In data set [2] the target is T1, MCL-1 (Homo sapiens, UniProt Q07820, K194A/K197A/R201A). The data set can be described thus: Protein-protein interaction assay MCL-1/Noxa BH3 peptide, TR-FRET (MCL-1 assay, Assay 1). The format is binding. As to conditions: MCL-1 Assay [M] (median), MBP-MCL-1 / Noxa BH3 peptide. The gist of the method: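 TR-FRET competition between compounds and a biotin-PEG Noxa BH3 tracer for 1 nM MBP-MCL-1 (residues 173-321). Incubation was 1 h at 22 °C in the dark, then overnight at 4 °C, in 50 mM Tris pH 7 buffer with KF and DTT, after a 10-min compound pre-equilibration. Normalized ratios were fitted with a 4-parameter Hill equation to give IC50.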
T1 sequence (Q07820 173-321 K194A/K197A/R201A, looked up): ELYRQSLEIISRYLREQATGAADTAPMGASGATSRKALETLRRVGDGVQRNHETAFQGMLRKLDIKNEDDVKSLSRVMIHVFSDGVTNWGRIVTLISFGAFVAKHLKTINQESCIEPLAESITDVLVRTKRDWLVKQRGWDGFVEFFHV

The next data set addresses BCL-XL (Homo sapiens, UniProt Q07817). Nature of the data set: Protein-protein interaction assay BCL-XL/Bad BH3 peptide, TR-FRET (BCL-XL assay, Assay 2). The format is binding. As to conditions: His-BCL-XL / Bad BH3 peptide, median.
The test system of data set [3] is SUDHL10. Nature of the data set: Anti-proliferative effect in SUDHL10 cells, CellTiter-Glo (Assay 7). The data set is classed as cell-based. As to conditions: Homo sapiens, SU-DHL10, SUDHL10, 72 hours incubation, median, read-out: Antiproli SUDHL10 [M] (median). On the procedure:
Assessment of the Anti-Proliferative Effect of Compounds in Different Cell Lines
The impact of compounds on the proliferation of different cell lines was assessed using the CellTiter-Glo® Luminescent Cell Viability reagent from Promega (G7573).
In parallel, cells were plated in a reference (day 0) plate for time zero determination. Cells were incubated in a humidified incubator at 37° C. overnight.
Rim wells were excluded. The cells were incubated for 72 hours in a humidified incubator at 37° C. The day 0 plate was measured by adding 30 μL/well of CTG solution (CellTiter-Glo® Luminescent Cell Viability reagent, Promega G7573) to time zero wells in the reference plate followed by a 10 minutes incubation and luminescence reading at 0.1 ms. using the PHERAstar FS microplate reader (BMG Labtech).
After 72 hours incubation, the treated plates were measured in the same way as the day 0 plate mentioned above. The Bella DRC Master Sheet was used to calculate IC50s, with CI=day 0 values and C0=DMSO control values.

The next data set deals with AMO-1. Nature of the data set: Anti-proliferative effect in AMO-1 cells, CellTiter-Glo (Assay 7). The data set is classed as cell-based. The conditions noted are these: AMO-1, 72 hours incubation, CellTiter-Glo, several values per example, read-out: Antiproli AMO-1. The gist of the method: (§2)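 72 h CTG viability assay, 37 °C, humidified. Time-zero plate as baseline; IC50 vs day 0 and DMSO controls.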

Data set [4] relates to SUDHL5. The data set can be described thus: Anti-proliferative effect in SUDHL5 cells, CellTiter-Glo (Assay 7). The format is cell-based. The conditions noted are these: SUDHL5, 72 hours incubation, CellTiter-Glo, median, read-out: Antiproli SUDHL5 [M] (median). The gist of the method:
as §2
In general terms: Cellular ATP, detected with luciferase, serves as a proxy for viable cell number.

In data set [5] the test system is SUDHL5. Nature of the data set: Induction of cytotoxicity in SUDHL5 cells, CellTiter-Glo (Assay 6). The data set is classed as cell-based. The conditions noted are these: SUDHL5, 5 hours incubation, median, read-out: Cytotox SUDHL5 [M] (median). The procedure, abridged: (§3)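 Luminescent ATP read-out (CellTiter-Glo) after 5 h compound exposure at 37° C. Cells seeded the day before; medium-only wells as background; rim wells excluded.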

Another data set concerns the target BCL-2 (Homo sapiens, UniProt P10415). Nature of the data set: Protein-protein interaction assay BCL-2/Bad BH3 peptide, TR-FRET (BCL-2 assay, Assay 3). The data set is classed as binding. The conditions noted are these: His-BCL-2 / Bad BH3 peptide, median.
A further data set relates to MV-4-11. Nature of the data set: Anti-proliferative effect in MV-4-11 cells, CellTiter-Glo (Assay 7). The data set is classed as cell-based. The conditions noted are these: MV-4-11, 72 hours incubation, CellTiter-Glo, several values per example, read-out: Antiproli MV-4-11. The procedure, abridged: as §2
Data set [6] concerns SUDHL10. Nature of the data set: Induction of caspase-3/7 activity in SUDHL10 cells (Assay 4). The conditions noted are these: SUDHL10, 3 hours treatment, Caspase-Glo 3/7, median, read-out: Caspase SUDHL10 [M] (median). The data set is classed as cell-based. The gist of the method: as §1
Data set [7] relates to SUDHL10. Nature of the data set: Induction of cytotoxicity in SUDHL10 cells, CellTiter-Glo (Assay 6). The format is cell-based. As to conditions: SUDHL10, 5 hours incubation, median, read-out: Cytotox SUDHL10 [M] (median). The gist of the method: as §3
For data set [8] the following is noted: the molecule shown is the open-chain precursor, crosslinker bond, 11-membered ring.
Data set [9] addresses T1, MCL-1. Nature of the data set: Protein-compound interaction assay, surface plasmon resonance (SPR assay, Assay 8). The format is binding. The conditions noted are these: geometric mean; for Kd: KD [M]. The text has this: Protein-Compound Interaction Assay (SPR Assay)
The ability of the compounds described in this invention to bind to MCL-1 may be determined using surface plasmon resonance (SPR). This allows for the quantification of binding in terms of the equilibrium dissociation constant (KD [M]), as well as association and dissociation rate constants (kon [1/M 1/s] and koff [1/s], respectively). The measurements may be performed using Biacore® T200 or Biacore® S200 instruments (GE Healthcare).
Briefly, carboxymethylated dextran biosensor chips (Series S Sensor Chip CM5, GE Healthcare) were activated with 1-ethyl-3-(3-dimethylaminopropyl)-carbodiimide hydrochloride (EDC) and N-hydroxysuccinimide (NHS) according to the supplier's instructions. MBP-MCL-1 was diluted in 1×PBS-P+ (GE Healthcare) and injected on the activated chip surface. Subsequently, a solution of 1 M ethanolamine-HCl (GE Healthcare) was injected to block unreacted groups, resulting in approximately 400-2500 response units (RU) of immobilized protein. A reference surface was generated by treatment with NHS-EDC and ethanolamine-HCl. […] Compounds were injected for 60 s followed by a dissociation time of up to 1000 s.
The double-referenced sensorgrams were fit to a simple reversible Langmuir 1:1 reaction mechanism as implemented in the Biacore® T200 and S200 evaluation software (T200 evaluation software version 2.0 and S200 evaluation software version 1.0, GE Healthcare).
(In general: SPR reads the build-up and loss of mass on a sensor chip optically.)

Setting [10] is: SPR, immobilized MBP-MCL-1, 25° C.

Chain of BCL-2 (P10415 1-211): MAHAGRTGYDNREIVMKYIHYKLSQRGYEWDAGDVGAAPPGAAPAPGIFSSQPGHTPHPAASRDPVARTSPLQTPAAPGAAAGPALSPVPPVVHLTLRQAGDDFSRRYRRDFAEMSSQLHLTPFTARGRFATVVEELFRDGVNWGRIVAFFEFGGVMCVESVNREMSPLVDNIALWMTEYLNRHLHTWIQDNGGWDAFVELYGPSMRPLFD
Chain of BCL-XL (Q07817 1-212): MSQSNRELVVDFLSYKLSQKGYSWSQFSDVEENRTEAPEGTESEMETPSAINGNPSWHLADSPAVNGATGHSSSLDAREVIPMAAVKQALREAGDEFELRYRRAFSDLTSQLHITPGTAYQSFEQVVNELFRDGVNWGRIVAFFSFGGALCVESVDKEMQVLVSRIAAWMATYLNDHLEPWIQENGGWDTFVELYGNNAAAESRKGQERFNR
Description for BCL-2: The dose-dependent inhibition by the compounds described in this invention of the interaction between BCL-2 and the BH3 domain of Bad (both human) was determined using a steady state binding competition assay with time-resolved fluorescence energy transfer (TR-FRET) readout. For that purpose BCL-2 (amino acids 1-211, C-terminal fused to a hexahistidine (6×His) tag (SEQ ID 5) and a synthetic Bad BH3-derived peptide of sequence Biotin-PEG2-PEG2-[sequence]-Nle-[sequence]-amide (SEQ ID 4) served as protein receptor and tracer ligand respectively. The recombinant BCL-2 protein (expressed in E. coli) was purchased from BPS Bioscience (San Diego, Calif., USA). The Bad BH3-derived peptide can be obtained from e.g. Biosyntan (Berlin, Germany).
For that, 100-fold concentrated DMSO solutions were prepared by serial dilutions (1:3.4) of a 2 mM stock solution in a clear, 384-well microtiter plate (Greiner Bio-One, Frickenhausen, Germany). From there, 50 nl were transferred in a dark test plate (Greiner Bio-One, Frickenhausen, Germany). The assay was initiated by addition of 2 μl of a 2,5-fold concentrated His-BCL-2 solution (usually for a 1 nM end concentration in 5 μl reaction volume) in aqueous assay buffer [50 mM Tris/HCl pH 7, 100 mM sodium chloride (NaCl), 50 mM potassium fluoride (KF), 0.005% Tween-20, 2 mM DTT, 0.1% bovine gamma globulin (BGG)] to the compounds in the assay plate. This was followed by a 10-minute incubation step at 22° C. for pre-equilibration of the putative complex between His-BCL-2 and the compounds.
The mixture was incubated in the dark for one hour at 22° C. and then overnight at 4° C. The formation of BCL-2/Bad complexes was determined by measuring the resonance energy transfer of the anti-His-Eu-cryptate antibody to the streptavidin-XL665 present in the reaction. For that purpose, the fluorescence emission at 620 nm and 665 nm after excitation at 330-350 nm was measured in a TR-FRET measuring instrument, for instance a Rubystar or a Pherastar (both from BMG Lab Technologies, Offenburg, Germany) or a Viewlux (Perkin-Elmer). The ratio of the emission at 665 nm and at 622 nm was used as indicator of the amount of BCL-2/Bad complexes present.
The resulting data (ratio) were normalized, taking 0% inhibition as the mean value of control measurements (usually 32 data points) where all reagents were included. In this case 50 nl DMSO were used instead of compounds. […] IC50 values were determined by regression analysis based on a 4 parameter equation (minimum, maximum, IC50, Hill; Y=Max+(Min−Max)/(1+(X/IC50)^Hill) using the Screener Software (Genedata).

As to `Cc1nn(C)c2c1-c1c(F)ccc3c(CCCOc4cccc5cc(F)ccc45)c(C(=O)O)n(c13)Cc1ccccc1COC2` (racemic) [Example 81, (rac)-15-Fluoro-1-(3-((6-fluoronaphthalen-1-yl)oxy)propyl)-12,14-dimethyl-4,9,11,12-tetrahydrobenzo[3,4]pyrazolo[4′,3′:9,10][1]oxa[6]azacycloundecino[8,7,6-hi]indole-2-carboxylic Acid], the EC50 turned out to be 2.1e-06 M in the data set on SUDHL5 [1] (Homo sapiens, SU-DHL-5, 3 h) and 5.2e-06 M in the data set with SUDHL10 [6] (Homo sapiens, SU-DHL10, 3 h). Besides, the IC50 against MCL-1 [2] is 4.6e-09 M; at BCL-XL, over 20 µM; in the data set with SUDHL10 [3], 3e-06 M; in the data set on SUDHL5 [4] (Homo sapiens, SU-DHL-5, 72 h) it was 3.3e-06 M; in the data set with SUDHL5 [5] (Homo sapiens, SU-DHL-5, 5 h), 2.5e-06 M; against BCL-2, 18 µM. In addition, in the data set on SUDHL10 [7] (Homo sapiens, SU-DHL10, 5 h), the IC50 stood at 4e-06 M. Moreover, the pIC50 in the data set with AMO-1 is 5.15 and 5.38; in the data set with AMO-1 (Homo sapiens, AMO1, 72 h) it was 5.19; with MV-4-11 (Homo sapiens, MV4-11, 72 h) it was 5.11; in the data set with MV-4-11, 5.11 and 5.19.
In [8] (1,2-bis(bromomethyl)benzene/Cs2CO3, THF/MeCN, 36.4 mM, 50.0 °C), `CCOC(=O)c1[nH]c2c(-c3c(CO)nn(C)c3CC)c(Cl)ccc2c1CCCOc1cccc2cc(F)ccc12` had a ring closure, isolated yield of 94%.
Consider `CCOC(=O)c1[nH]c2c(-c3c(CC)nn(C)c3CO)c(Cl)ccc2c1CCCOc1cccc2cc(F)ccc12`, for which, in [8] (1,2-bis(bromomethyl)benzene/Cs2CO3, THF/MeCN, 35.9 mM, 50.0 °C), the ring closure, isolated yield was 62%.
For the compound `CCOC(=O)c1[nH]c2c(-c3c(CO)nn(C)c3C)c(Cl)ccc2c1CCCOc1cccc2ccccc12`, the ring closure, isolated yield in data set [8] (2,3-bis(chloromethyl)pyrazine/Cs2CO3/NaI, MeCN, 167.0 mM, 70.0 °C) was 13%; in [8] (2,3-bis(chloromethyl)pyridine HCl/Cs2CO3/NaI, MeCN, 94.0 mM, 75.0 °C), 10%.
As to `Cc1c2c(nn1C)COCc1ccccc1Cn1c(C(=O)O)c(CCCOc3cccc4ccccc34)c3cccc-2c31` (single isomer, unassigned; enantiomer 1) [Example 2, 4,5-Dimethyl-17-[3-(naphthalen-1-yloxy)propyl]-5,7,9,14-tetrahydroindolo[7,1-fg]pyrazolo[3,4-d][2,8]benzoxazacycloundecine-16-carboxylic acid-N-ethylethanamine Salt (Enantiomer 1)], the EC50 in the data set with SUDHL5 [1] stood at 2e-06 M; in the data set with SUDHL10 [6] it was 7.7e-06 M. Also, the IC50 against MCL-1 [2] was 2.3e-09 M; against BCL-XL, over 20 µM; in the data set with SUDHL5 [4], 2.9e-06 M; in the data set on SUDHL5 [5], 2.3e-06 M; at BCL-2, over 20 µM; in the data set on SUDHL10 [7], 7.3e-06 M. For the same compound, the equilibrium dissociation constant (Kd) – broadly, the concentration at which binding is half-saturated – on MCL-1 [9] (setting [10]) came out at 6e-09 M. Besides, on MCL-1 [9] (setting [10]), the “kon [1/M 1/s]” value is reported as 1.1E7 1/M 1/s. For the same compound, the koff at MCL-1 [9] (read-out: koff [1/s], SPR, immobilized MBP-MCL-1, 25° C.) came out at 0.068 s⁻¹.
Consider `CCc1nn(C)c2c1-c1c(F)ccc3c(CCCOc4cccc5cc(F)ccc45)c(C(=O)O)n(c13)Cc1ccccc1COC2` (racemic) [Example 90, (rac)-14-Ethyl-15-fluoro-1-(3-((6-fluoronaphthalen-1-yl)oxy)propyl)-12-methyl-4,9,11,12-tetrahydrobenzo[3,4]pyrazolo[4′,3′:9,10][1,6]oxaazacycloundecino[8,7,6-hi]indole-2-carboxylic Acid], for which the EC50 in the data set on SUDHL5 [1] (Homo sapiens, SU-DHL-5, 3 h) was 1.4e-06 M; in the data set with SUDHL10 [6] (Homo sapiens, SU-DHL10, 3 h), 6.6e-06 M. Further, the IC50 was 3.2e-09 M on MCL-1 [2]; over 20 µM against BCL-XL; 2.1e-06 M in the data set on SUDHL10 [3]; 2e-06 M with SUDHL5 [4] (Homo sapiens, SU-DHL-5, 72 h); 17.8 µM against BCL-2. The pIC50 in the data set with AMO-1 was 4.99 and 5.16; with AMO-1 (Homo sapiens, AMO1, 72 h), 5.25; with MV-4-11 (Homo sapiens, MV4-11, 72 h), 5.30; in the data set with MV-4-11 it was 5.07 and 5.16.
For `Cc1c2c(nn1C)COCc1ccccc1Cn1c(C(=O)O)c(CCCOc3cccc4ccccc34)c3cccc-2c31` (single isomer, unassigned; enantiomer 2) [Example 3, 4,5-Dimethyl-17-[3-(naphthalen-1-yloxy)propyl]-5,7,9,14-tetrahydroindolo[7,1-fg]pyrazolo[3,4-d][2,8]benzoxazacycloundecine-16-carboxylic acid-N-ethylethanamine Salt (Enantiomer 2)], the figures for the EC50 in the data set on SUDHL5 [1] and in the data set on SUDHL10 [6] were over 1.2e-05 M and over 3.3e-05 M, respectively. Further, the IC50 was 2.7e-08 M at MCL-1 [2], 7.7e-06 M in the data set on SUDHL5 [4], 8.3e-06 M in the data set on SUDHL5 [5] and over 3.3e-05 M in the data set on SUDHL10 [7]. This compound registered a dissociation constant (Kd) at MCL-1 [9] (setting [10]) of 1.7e-07 M. Also, the “koff” value at MCL-1 [9] (setting [10]) turned out to be 0.046 s⁻¹. Also, on MCL-1 [9] (setting [10]), the “kon [1/M 1/s]” value is given as 2.8E5 1/M 1/s.

For the origin of these results see patent publication US20210253598A1, “ARYL ANNULATED MACROCYCLIC INDOLE DERIVATIVES” (priority 2017, published 2021).
